The record followed here is patent publication US11708348B2, “Protease inhibitors for treatment of coronavirus infections” (The Scripps Research Institute, priority 2021, dated 2023).

The first assay relates to SARS-CoV-2 strain USA-WA1/2020. Put plainly: microbe, parasite or virus in culture. In kind it is cell-based. The conditions noted are these: Severe acute respiratory syndrome coronavirus 2, HeLa-ACE2, 24 h, HeLa-ACE2 cells, SARS-CoV-2 infection, 24 h; cells given as a bound; read-out: EC50, uM (Hela).
With `CC(C)C[C@H](NC(=O)C(=O)Nc1ccccc1)C(=O)N[C@@H](C[C@@H]1CCNC1=O)C(O)COc1c(F)c(F)cc(F)c1F` (stereo partly drawn) [Compound 49, N1-((2S)-1-(((2S)-3-hydroxy-1-((S)-2-oxopyrrolidin-3-yl)-4-(2,3,5,6-tetrafluorophenoxy)butan-2-yl)amino)-4-methyl-1-oxopentan-2-yl)-N2-phenyloxalamide], the EC50 was more than 1 µM.

As for `CC(C)C[C@H](CC(=O)NCc1c(F)cccc1F)C(=O)N[C@@H](C[C@@H]1CCNC1=O)C(=O)COc1c(F)c(F)cc(F)c1F` [Compound 55, (R)-N4-(2,6-difluorobenzyl)-2-isobutyl-N1-((S)-3-oxo-1-((S)-2-oxopyrrolidin-3-yl)-4-(2,3,5,6-tetrafluorophenoxy)butan-2-yl)succinamide], the EC50 is more than 1 µM.

Staying with this assay, now noted: Severe acute respiratory syndrome coronavirus 2, HeLa-ACE2, 24 h, HeLa-ACE2 cells, SARS-CoV-2 infection, 24 h; class symbols; read-out: EC50, uM (Hela).
In the case of `CC(C)C[C@H](NC(=O)C(=O)Nc1cccnc1C(F)(F)F)C(=O)N[C@@H](C[C@@H]1CCNC1=O)C(=O)COc1c(F)c(F)cc(F)c1F` [Compound 48, N1-((S)-4-methyl-1-oxo-1-(((S)-3-oxo-1-((S)-2-oxopyrrolidin-3-yl)-4-(2,3,5,6-tetrafluorophenoxy)butan-2-yl)amino)pentan-2-yl)-N2-(2-(trifluoromethyl)-pyridin-3-yl)oxalamide], the EC50 was less than 0.05 µM.

Take `CC(C)C[C@H](NC(=O)C(=O)Nc1cccc2ccccc12)C(=O)N[C@@H](C[C@@H]1CCNC1=O)C(=O)COc1c(F)c(F)cc(F)c1F` [Compound 51, N1-((S)-4-methyl-1-oxo-1-(((S)-3-oxo-1-((S)-2-oxopyrrolidin-3-yl)-4-(2,3,5,6-tetrafluorophenoxy)butan-2-yl)amino)pentan-2-yl)-N2-(naphthalen-1-yl)oxalamide]: the EC50 was less than 0.05 µM.

Consider `CC(C)C[C@H](NC(=O)C(=O)Nc1cccc(Cl)c1)C(=O)N[C@@H](C[C@@H]1CCNC1=O)C(=O)COc1c(F)c(F)cc(F)c1F` [Compound 52, N1-(3-chlorophenyl)-N2-((S)-4-methyl-1-oxo-1-(((S)-3-oxo-1-((S)-2-oxopyrrolidin-3-yl)-4-(2,3,5,6-tetrafluorophenoxy)butan-2-yl)amino)pentan-2-yl)oxalamide], for which the EC50 lay in the range of 0.05 to 0.2 µM.

With `CC(C)C[C@H](NC(=O)C(=O)Nc1ccc(F)c(F)c1)C(=O)N[C@@H](C[C@@H]1CCNC1=O)C(=O)COc1c(F)c(F)cc(F)c1F` [Compound 53, N1-(3,4-difluorophenyl)-N2-((S)-4-methyl-1-oxo-1-(((S)-3-oxo-1-((S)-2-oxopyrrolidin-3-yl)-4-(2,3,5,6-tetrafluorophenoxy)butan-2-yl)amino)pentan-2-yl)oxalamide], the EC50 is 0.05 to 0.2 µM.

Take `CC(C)C[C@H](NC(=O)C(=O)Nc1ccccc1Br)C(=O)N[C@@H](C[C@@H]1CCNC1=O)C(=O)COc1c(F)c(F)cc(F)c1F` [Compound 56, N1-(2-bromophenyl)-N2-((S)-4-methyl-1-oxo-1-(((S)-3-oxo-1-((S)-2-oxopyrrolidin-3-yl)-4-(2,3,5,6-tetrafluorophenoxy)butan-2-yl)amino)pentan-2-yl)oxalamide]: the EC50 lay in the range of 0.05 to 0.2 µM.

As for `CC(C)C[C@H](NC(=O)C(=O)Nc1ccccc1Cc1ccccc1)C(=O)N[C@@H](C[C@@H]1CCNC1=O)C(=O)COc1c(F)c(F)cc(F)c1F` [Compound 57, N1-(2-benzylphenyl)-N2-((S)-4-methyl-1-oxo-1-(((S)-3-oxo-1-((S)-2-oxopyrrolidin-3-yl)-4-(2,3,5,6-tetrafluorophenoxy)butan-2-yl)amino)pentan-2-yl)oxalamide], the concentration giving a half-maximal response (EC50) was 0.2 to 0.5 µM.

`C=CC[C@H](NC(=O)C(=O)Nc1ccccc1)C(=O)N[C@@H](C[C@@H]1CCNC1=O)C(=O)COc1c(F)c(F)cc(F)c1F` [Compound 58, N1-((S)-1-oxo-1-(((S)-3-oxo-1-((S)-2-oxopyrrolidin-3-yl)-4-(2,3,5,6-tetrafluorophenoxy)butan-2-yl)amino)pent-4-en-2-yl)-N2-phenyloxalamide]: the EC50 was 0.2 to 0.5 µM.

As to `CC(C)C[C@H](NC(=O)C(=O)NCc1cc(Cl)ccc1Cl)C(=O)N[C@@H](C[C@@H]1CCNC1=O)C(=O)COc1c(F)c(F)cc(F)c1F` [Compound 59, Nl-(2,5-dichlorobenzyl)-N2-((S)-4-methyl-1-oxo-1-(((S)-3-oxo-1-((S)-2-oxopyrrolidin-3-yl)-4-(2,3,5,6-tetrafluorophenoxy)butan-2-yl)amino)pentan-2-yl)oxalamide], the EC50 was 0.2 to 0.5 µM.

With `CC(C)C[C@H](NC(=O)/C=C/c1ccccc1F)C(=O)N[C@@H](C[C@@H]1CCNC1=O)C(=O)COc1c(F)c(F)cc(F)c1F` [Compound 60, (S)-2-((E)-3-(2-fluorophenyl)acrylamido)-4-methyl-N-((S)-3-oxo-1-((S)-2-oxopyrrolidin-3-yl)-4-(2,3,5,6-tetrafluorophenoxy)butan-2-yl)pentanamide], the EC50 was 0.05 to 0.2 µM.

As to `O=C(Nc1ccccc1F)C(=O)N[C@@H](CC1CCCCC1)C(=O)N[C@@H](C[C@@H]1CCNC1=O)C(=O)COc1c(F)c(F)cc(F)c1F` [Compound 61, N1-((S)-3-cyclohexyl-1-oxo-1-(((S)-3-oxo-1-((S)-2-oxopyrrolidin-3-yl)-4-(2,3,5,6-tetrafluorophenoxy)butan-2-yl)amino)propan-2-yl)-N2-(2-fluorophenyl)oxalamide], the EC50 was less than 0.05 µM.

Take `CC(C)C[C@H](NC(=O)C(=O)Nc1ccccc1OC(F)F)C(=O)N[C@@H](C[C@@H]1CCNC1=O)C(=O)COc1c(F)c(F)cc(F)c1F` [Compound 62, N1-(2-(difluoromethoxy)-phenyl)-N2-((S)-4-methyl-1-oxo-1-(((S)-3-oxo-1-((S)-2-oxopyrrolidin-3-yl)-4-(2,3,5,6-tetrafluorophenoxy)butan-2-yl)amino)pentan-2-yl)oxalamide]: the EC50 is less than 0.05 µM.

In the case of `CCc1ccccc1NC(=O)C(=O)N[C@@H](CC(C)C)C(=O)N[C@@H](C[C@@H]1CCNC1=O)C(=O)COc1c(F)c(F)cc(F)c1F` [Compound 63, N1-(2-ethylphenyl)-N2-((S)-4-methyl-1-oxo-1-(((S)-3-oxo-1-((S)-2-oxopyrrolidin-3-yl)-4-(2,3,5,6-tetrafluorophenoxy)butan-2-yl)amino)pentan-2-yl)oxalamide], the EC50 is less than 0.05 µM.

Regarding `Cc1cccc(C)c1NC(=O)C(=O)N[C@@H](CC(C)C)C(=O)N[C@@H](C[C@@H]1CCNC1=O)C(=O)COc1c(F)c(F)cc(F)c1F` [Compound 64, N1-(2,6-dimethylphenyl)-N2-((S)-4-methyl-1-oxo-1-(((S)-3-oxo-1-((S)-2-oxopyrrolidin-3-yl)-4-(2,3,5,6-tetrafluorophenoxy)butan-2-yl)amino)pentan-2-yl)oxalamide], the half-maximal effective concentration (EC50) is less than 0.05 µM.

`Cc1cccc(NC(=O)C(=O)N[C@@H](CC(C)C)C(=O)N[C@@H](C[C@@H]2CCNC2=O)C(=O)COc2c(F)c(F)cc(F)c2F)c1C` [Compound 65, N1-(2,3-dimethylphenyl)-N2-((S)-4-methyl-1-oxo-1-(((S)-3-oxo-1-((S)-2-oxopyrrolidin-3-yl)-4-(2,3,5,6-tetrafluorophenoxy)butan-2-yl)amino)pentan-2-yl)oxalamide]: the EC50 is less than 0.05 µM.

Take `CC(C)C[C@H](NC(=O)/C=C/c1ccccc1)C(=O)N[C@@H](C[C@@H]1CCNC1=O)C(=O)COc1c(F)c(F)cc(F)c1F` [Compound 66, (S)-2-cinnamamido-4-methyl-N-((S)-3-oxo-1-((S)-2-oxopyrrolidin-3-yl)-4-(2,3,5,6-tetrafluorophenoxy)butan-2-yl)pentanamide]: the EC50 fell in the range of 0.05 to 0.2 µM.

For the molecule `CC(C)C[C@H](NC(=O)c1cc(-c2ccccc2F)on1)C(=O)N[C@@H](C[C@@H]1CCNC1=O)C(=O)COc1c(F)c(F)cc(F)c1F` [Compound 67, 5-(2-fluorophenyl)-N-((S)-4-methyl-1-oxo-1-(((S)-3-oxo-1-((S)-2-oxopyrrolidin-3-yl)-4-(2,3,5,6-tetrafluorophenoxy)butan-2-yl)amino)pentan-2-yl)isoxazole-3-carboxamide], the EC50 is 0.2 to 0.5 µM.

As for `Cc1ccc(NC(=O)C(=O)N[C@@H](CC(C)C)C(=O)N[C@@H](C[C@@H]2CCNC2=O)C(=O)COc2c(F)c(F)cc(F)c2F)c(F)c1` [Compound 68, N1-(2-fluoro-4-methylphenyl)-N2-((S)-4-methyl-1-oxo-1-(((S)-3-oxo-1-((S)-2-oxopyrrolidin-3-yl)-4-(2,3,5,6-tetrafluorophenoxy)butan-2-yl)amino)pentan-2-yl)oxalamide], the EC50 is less than 0.05 µM.

For the molecule `CC(C)C[C@H](NC(=O)C(=O)NC1CCCCC1)C(=O)N[C@@H](C[C@@H]1CCNC1=O)C(=O)COc1c(F)c(F)cc(F)c1F` [Compound 69, N1-cyclohexyl-N2-((S)-4-methyl-1-oxo-1-(((S)-3-oxo-1-((S)-2-oxopyrrolidin-3-yl)-4-(2,3,5,6-tetra-fluorophenoxy)butan-2-yl)amino)pentan-2-yl)oxalamide], the EC50 fell in the range of 0.05 to 0.2 µM.

For `CC(C)C[C@H](NC(=O)c1cc(-c2ccccc2)on1)C(=O)N[C@@H](C[C@@H]1CCNC1=O)C(=O)COc1c(F)c(F)cc(F)c1F` [Compound 70, N-((S)-4-methyl-1-oxo-1-(((S)-3-oxo-1-((S)-2-oxopyrrolidin-3-yl)-4-(2,3,5,6-tetrafluoro-phenoxy)butan-2-yl)amino)pentan-2-yl)-5-phenylisoxazole-3-carboxamide], the EC50 was 0.2 to 0.5 µM.

Staying with this assay, now noted: Severe acute respiratory syndrome coronavirus 2, HeLa-ACE2, 24 h, read-out: EC50, uM (Hela).
In the case of `CC(C)C[C@H](CC(=O)NCc1ccccc1F)C(=O)N[C@@H](C[C@@H]1CCNC1=O)C(=O)COc1c(F)c(F)cc(F)c1F` [Compound 54, (R)-N4-(2-fluorobenzyl)-2-isobutyl-N1-((S)-3-oxo-1-((S)-2-oxopyrrolidin-3-yl)-4-(2,3,5,6-tetrafluorophenoxy)butan-2-yl)succinamide], the EC50 was more than 1 µM.

Still in this assay, the particulars now being: Severe acute respiratory syndrome coronavirus 2, HeLa-ACE2, 24 h; read-out: EC50, uM (Hela).
For the molecule `CC(C)C[C@H](NC(=O)c1cc2cc(F)ccc2[nH]1)C(=O)N[C@@H](C[C@@H]1CCNC1=O)C(=O)COP(=O)(c1ccccc1)c1ccccc1` [Compound 50, (S)-3-((S)-2-(5-fluoro-1H-indole-2-carboxamido)-4-methylpentanamido)-2-oxo-4-((S)-2-oxopyrrolidin-3-yl)butyl diphenylphosphinate], the concentration for a half-maximal effect (EC50) lay in the range of 0.2 to 0.5 µM.
